In ChEMBL document CHEMBL3217431, “Synthesis, in silico screening and bioevaluation of dispiro-cycloalkanones as antitubercular and mycobacterial NAD+-dependent DNA ligase inhibitors” (Medchemcomm, 2011):
pIC50, pKi: −log10 of the molar value. Converted amounts (≈) assume the structure as drawn. The source made the active and inactive calls. The rule behind the calls is not given here.

Tests used:
[1] = test system: Mycobacterium tuberculosis; assay: Antitubercular activity against Mycobacterium tuberculosis H37Rv assessed as growth inhibition after 30 days by agar microdilution method; assay type: functional
[2] = test system: Salmonella typhimurium; assay: In vivo antibacterial activity against DNA ligase deficient Salmonella typhimurium variant TT15151 expressing […] T4 DNA ligase gene assessed as growth inhibition after 20 hrs by microdilution assay; assay type: functional, Salmonella enterica subsp. enterica serovar Typhimurium; details: Salmonella enterica, TT15151, 20 h
[3] = Ratio of IC50 for human DNA ligase 1 to IC50 for Mycobacterium tuberculosis full length NAD+-dependent DNA ligase
[4] = biological target: DNA ligase 1 (Homo sapiens, UniProt P18858); assay: Inhibition of nick joining activity of human DNA ligase 1 using [gamma32P]ATP-labeled nicked 40 bp DNA as substrate
[5] = biological target: T1, DNA ligase (Enterobacteria phage T4, UniProt P00970); assay: Inhibition of nick joining activity of ATP-dependent bacteriophage T4 DNA ligase using [gamma32P]ATP-labeled nicked 40 bp DNA as substrate; parameters: species or system Tequatrovirus T4
T1 sequence (P00970 whole entry): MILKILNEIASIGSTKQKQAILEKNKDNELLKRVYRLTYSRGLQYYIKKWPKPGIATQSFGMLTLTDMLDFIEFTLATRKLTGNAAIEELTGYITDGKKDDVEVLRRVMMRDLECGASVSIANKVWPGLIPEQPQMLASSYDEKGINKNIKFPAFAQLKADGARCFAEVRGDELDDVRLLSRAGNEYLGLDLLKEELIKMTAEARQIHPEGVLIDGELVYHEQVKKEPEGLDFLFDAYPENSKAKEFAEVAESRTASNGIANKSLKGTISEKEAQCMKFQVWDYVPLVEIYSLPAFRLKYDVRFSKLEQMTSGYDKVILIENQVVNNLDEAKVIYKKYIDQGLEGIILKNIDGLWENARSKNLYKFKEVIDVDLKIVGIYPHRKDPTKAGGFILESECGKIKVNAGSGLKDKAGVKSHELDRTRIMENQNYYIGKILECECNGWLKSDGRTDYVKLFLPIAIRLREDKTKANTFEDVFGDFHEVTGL

[6] = test system: Escherichia coli; assay: In vivo antibacterial activity against Escherichia coli GR501 harboring lig251 temperature-sensitive mutant gene transformed with control plasmid pTrc99A assessed as growth inhibition after 20 hrs by microdilution assay; assay type: functional; details: GR501, 20 h
[7] = Binding affinity to plasmid DNA (unknown origin) by gel electrophoresis mobility shift assay
[8] = Ratio of IC50 for ATP-dependent bacteriophage T4 DNA ligase to IC50 for Mycobacterium tuberculosis full length NAD+-dependent DNA ligase
[9] = test system: Escherichia coli; assay: In vivo antibacterial activity against Escherichia coli GR501 harboring temperature-sensitive lig251 mutant gene transformed with plasmid encoding T4 DNA ligase assessed as growth inhibition after 20 hrs by microdilution assay; assay type: functional; details: GR501, 20 h
[10] = test system: Salmonella typhimurium; assay: In vivo antibacterial activity against wild type Salmonella typhimurium LT2 assessed as growth inhibition after 20 hrs by microdilution assay; assay type: functional, Salmonella enterica subsp. enterica serovar Typhimurium; details: Salmonella enterica, LT2, 20 h
[11] = test system: Calf thymus DNA; assay: Binding affinity to calf thymus DNA up to 250 uM by ethidium bromide displacement assay; assay type: nucleic-acid assay; details: Bos taurus
[12] = Inhibition of nick joining activity of Mycobacterium tuberculosis full length NAD+-dependent DNA ligase using [gamma32P]ATP-labeled nicked 40 bp DNA as substrate
[13] = Competitive inhibition of nick joining activity of Mycobacterium tuberculosis full length NAD+-dependent DNA ligase using [gamma32P]ATP-labeled nicked 40 bp DNA as substrate by double reciprocal plot assay in presence of rising concentrations of NAD+

Chain of DNA ligase 1 (P18858 whole entry): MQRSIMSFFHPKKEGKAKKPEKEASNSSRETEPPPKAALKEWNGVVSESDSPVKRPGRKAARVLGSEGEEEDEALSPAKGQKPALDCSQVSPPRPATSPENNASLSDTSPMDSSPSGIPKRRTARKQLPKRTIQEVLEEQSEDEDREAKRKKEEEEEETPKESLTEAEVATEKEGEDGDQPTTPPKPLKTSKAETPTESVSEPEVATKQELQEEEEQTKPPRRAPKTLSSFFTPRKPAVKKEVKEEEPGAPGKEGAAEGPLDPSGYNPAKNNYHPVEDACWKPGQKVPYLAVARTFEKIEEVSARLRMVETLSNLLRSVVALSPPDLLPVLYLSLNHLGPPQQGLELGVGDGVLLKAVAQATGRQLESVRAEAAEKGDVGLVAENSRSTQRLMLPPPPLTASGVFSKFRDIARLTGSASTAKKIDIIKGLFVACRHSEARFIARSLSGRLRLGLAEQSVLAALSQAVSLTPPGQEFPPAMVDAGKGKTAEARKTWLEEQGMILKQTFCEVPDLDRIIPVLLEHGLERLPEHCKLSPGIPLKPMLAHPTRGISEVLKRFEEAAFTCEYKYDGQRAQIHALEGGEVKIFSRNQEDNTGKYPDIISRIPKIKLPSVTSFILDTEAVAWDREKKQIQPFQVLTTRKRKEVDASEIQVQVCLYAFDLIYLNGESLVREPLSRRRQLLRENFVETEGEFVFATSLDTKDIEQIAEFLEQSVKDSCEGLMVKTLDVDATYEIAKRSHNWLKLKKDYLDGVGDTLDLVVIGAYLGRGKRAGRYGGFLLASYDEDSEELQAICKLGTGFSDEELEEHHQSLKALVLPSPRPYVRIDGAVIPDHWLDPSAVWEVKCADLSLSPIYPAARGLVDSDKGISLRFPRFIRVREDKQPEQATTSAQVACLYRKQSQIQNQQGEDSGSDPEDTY

Compound: COc1ccc(C2CC23CCCCC2(CC2c2ccc(OC)c(OC)c2)C3=O)cc1OC (centres undefined)
- MIC90 [1]: 28.6 µM (≈ 12.5 µg/mL)

Compound: O=C1C2(CCC13CC3c1ccc(Br)cc1)CC2c1ccc(Br)cc1 (centres undefined)
- MIC90 [1]: 28 µM (≈ 12.5 µg/mL)

Compound: CC[C@@H](CO)NCCN[C@@H](CC)CO [ETHAMBUTOL]
- MIC90 [1]: 15.9 µM (≈ 3.25 µg/mL)

Compound: COc1ccc(C2CC23CCCC2(CC2c2ccc(OC)c(OC)c2)C3=O)cc1OC (centres undefined)
- MIC90 [1]: 29.6 µM (≈ 12.5 µg/mL)

Compound: O=C1C2(CCCC13CC3c1ccc(F)cc1)CC2c1ccc(F)cc1 (centres undefined)
- MIC [2]: 148 µM (≈ 50 µg/mL)
- Ratio IC50 [3]: 5
- pIC50 [4]: 4.34
- pIC50 [5]: 4.48
- MIC [6]: 5.9 µM (≈ 2 µg/mL)
- Activity [7]: inactive
- Ratio IC50 [8]: 4
- MIC [9]: 178 µM (≈ 60.1 µg/mL)
- MIC [10]: 29.5 µM (≈ 9.98 µg/mL)
- Activity [11]: inactive
- pIC50 [12]: 5.07
- MIC90 [1]: > 30 µM

Compound: COc1cc(C2CC23CCCC2(CC2c2cc(OC)c(OC)c(OC)c2)C3=O)cc(OC)c1OC (centres undefined)
- MIC90 [1]: 25.9 µM (≈ 12.5 µg/mL)

Compound: COc1ccc(C2CC23CCCC2(CC2c2ccc(OC)cc2)C3=O)cc1 (centres undefined)
- MIC90 [1]: > 30 µM

Compound: O=C1C2(CCC13CC3c1ccc(F)cc1)CC2c1ccc(F)cc1 (centres undefined)
- MIC90 [1]: > 30 µM

Compound: O=C(C1CC1c1ccc(OCc2ccccc2)cc1)C1CC1c1ccc(OCc2ccccc2)cc1 (centres undefined)
- MIC90 [1]: 26.3 µM (≈ 12.5 µg/mL)

Compound: COc1cc(C2CC23CCCCC2(CC2c2cc(OC)c(OC)c(OC)c2)C3=O)cc(OC)c1OC (centres undefined)
- MIC90 [1]: 25.2 µM (≈ 12.5 µg/mL)

Compound: COc1ccc(C2CC23CCC2(CC2c2ccc(OC)c(OC)c2)C3=O)cc1OC (centres undefined)
- MIC90 [1]: > 30 µM

Compound: O=C1C2(CCCC13CC3c1ccccc1)CC2c1ccccc1 (centres undefined)
- pIC50 [4]: 3.89
- pIC50 [5]: 3.68
- pIC50 [12]: 3.74
- MIC90 [1]: > 30 µM

Compound: O=C1C2(CCCCC13CC3c1ccc(Cl)cc1)CC2c1ccc(Cl)cc1 (centres undefined)
- MIC90 [1]: > 30 µM

Compound: O=C1C2(CCCC13CC3c1ccc(Cl)cc1)CC2c1ccc(Cl)cc1 (centres undefined)
- pIC50 [4]: 4.73
- pIC50 [5]: 4.69
- pIC50 [12]: 4.92
- MIC90 [1]: 16.8 µM (≈ 6.24 µg/mL)

Compound: O=C1C2(CCCC13CC3c1ccc(Br)cc1)CC2c1ccc(Br)cc1 (centres undefined)
- MIC [2]: 76 µM (≈ 35 µg/mL)
- Ratio IC50 [3]: 8
- pIC50 [4]: 4.23
- pIC50 [5]: 4.15
- MIC [6]: 8.6 µM (≈ 3.96 µg/mL)
- Activity [7]: inactive
- Ratio IC50 [8]: 8
- MIC [9]: 65.2 µM (≈ 30 µg/mL)
- MIC [10]: 43.4 µM (≈ 20 µg/mL)
- Activity [11]: inactive
- pIC50 [12]: 5.14
- pKi [13]: 5.23
- MIC90 [1]: 13.5 µM (≈ 6.21 µg/mL)

Compound: O=C1C2(CCC13CC3c1ccc(OCc3ccccc3)cc1)CC2c1ccc(OCc2ccccc2)cc1 (centres undefined)
- MIC90 [1]: 25 µM (≈ 12.5 µg/mL)

Compound: COc1ccc(C2CC23CCCCC2(CC2c2ccc(OC)cc2)C3=O)cc1 (centres undefined)
- MIC90 [1]: > 30 µM

Compound: O=C1C2(CCCC13CC3c1ccc(OCc3ccccc3)cc1)CC2c1ccc(OCc2ccccc2)cc1 (centres undefined)
- MIC90 [1]: 24.3 µM (≈ 12.5 µg/mL)

Compound: COc1ccc(C2CC23CCC2(CC2c2ccc(OC)cc2)C3=O)cc1 (centres undefined)
- MIC90 [1]: > 30 µM

Compound: NNC(=O)c1ccncc1 [ISONIAZID]
- MIC90 [1]: 4.7 µM (≈ 0.645 µg/mL)
